Experimental data taken from US20070026090A1, “Treatment and prevention of inflammatory disease and mitochondrial dysfunction with high dose selenium” (priority 2003, published 2007).
Entries after “also recorded” stand apart in the source; their conditions may differ.

Experiments:
[1] = test system: mitochondrial DNA (D-loop region); test: Mitochondrial DNA analysis in the colon (D-loop PCR); type: in vivo, rat
Description: Mitochondrial DNA analysis in the colon: Tissue content of mitochondrial DNA was determined using specific primers for the D-loop region in the mitochondrial DNA. Mitochondrial colon tissue genomic DNA, was prepared using the Promega Wizard Genomic DNA Purification Kit (Promega Corp, Madison, Wis.). Mitochondrial DNA was amplified by the PCR reaction: Twenty cycles were used for the amplification with 25 ng total tissue DNA as template. Saturation in intensity of PCR products was observed after 24 cycles.
Primers: Left (sense) 5′-[…]-3′ (SEQ ID NO:1), corresponding to nucleotides 468 to 489 of rat mitochondrial D-loop region DNA (GenBank Accession No. X52757.1).
Right (antisense) 5′-[…]-3′ (SEQ ID NO:2) corresponding to nucleotides 988 to 967 of rat mitochondrial D-loop DNA (GenBank Accession No. X52757.1).
The expected PCR product was 520 bp. Actual PCR product was approximately 520 bp, measured on 1.25% agarose gel in TAE containing ethidium bromide.

cytochrome c = test: Cytochrome c protein in colon tissue (Western blot); type: in vivo, rat
Description: Western blotting—analysis of Cytochrome c: Colon tissue samples were boiled and kept in sample buffer (Sigma-Aldrich Corp., St Louis, Mo.) immediately following isolation. For electrophoretic separation and immunodetection, the samples were reboiled, and subjected to SDS-PAGE followed by Western blot analysis. Briefly, separated proteins were transferred electrophoretically from the gel to a nitrocellulose membrane (Amersham International plc, Buckinghamshire, England). The membrane was blocked in TBS (0.15 M NaCl/10 mM Tris/HCl [pH7.4]) containing 5% (v/v) skim milk (Blotto), then incubated overnight with the primary antibody at 4° C. (diluted 1/1000 in Blotto). Following six washes in TBST (TBS containing 0.05% v/v Tween 20), the membrane was incubated for 2 hours at room temperature with the secondary antibody (diluted 1/1000 in Blotto). Immunoreactive bands were detected with ECL western blotting detection reagents and developed on film (Shilo et al., 2003). Separated proteins were transferred electrophoretically from the gel to a nitrocellulose membrane (Amersham International plc, Buckinghamshire, England). […] Immunoreactive bands were visualized by detection with ECL Western blotting detection reagents (ECL, Amersham Biosciences, Uppsala, Sweden) followed by exposure of film and quantitation by densitometry (Shilo et al., 2003).

NF-κB = NF-κB binding activity of nuclear extracts of treated macrophages (EMSA); type: cell-based, murine
Description: Cell culture: Murine J774.2 macrophages (kindly provided by Prof. Dov Zipori from the Weizmann Institute of Science) were grown in RPMI medium supplemented with 10% (w/v) fetal calf serum, penicillin (100 U/ml), streptomycin (100 μg/ml) and 1× glutamine at 37° C. in a humidified atmosphere consisting of 95% air and 5% CO2. Experiments were performed on cells at 60% confluence.
Nuclear extracts: Nuclear Extracts were prepared using a slight modification of the method of Dignam et al (23). Treated cells were washed with cold PBS, scraped and centrifuged. Hypotonic buffer (1 ml, 20 mM HEPES pH 7.0, 10 mM KCl, 1 mM mGCl2, 0.5 mM DTT, 0.1% Triton X-100, 20% glycerol, 2 mM PMSP, 1 mg/ml Aprotonin and Leupeptin) was added to the cell pellets, the pellets were disrupted by pipetting, and centrifuged 3000 RPM for 5 min. The pellets were re-suspended in 100 μl cold extraction buffer (20 mM HEPES pH 7.0, 10 mM KCl, 1 mM mGCl2, 0.5 mM DTT, 0.1% Triton X-100, 20% glycerol, 2 mM PMSF, 1 mg/ml Aprotonin and Leupeptin, 420 mM NaCl). The samples were rotated for 20 min at 4° C., centrifuged 15,000 RPM for 10 min, and supernatants collected. Protein content was measured using Bradford reagent. Samples were stored frozen at minus 70° C.
Electromobility shift assay (EMSA)—Gel shift assays were performed according to the gel shift assay protocol from Promega Corp. (San Luis Obispo, Calif.). A 22-mer double-stranded NF-κB consensus oligonucleotide 5′-[…]-3′ (SEQ ID NO:3), and Sp1 consensus oligonucleotide 5′-[…]-3(SEQ ID NO:4), were labeled with 32P. For each reaction, 2 μg of nuclear extract were incubated with 2 μl of 5× binding buffer for 5 min., 1 μl of the ^32P-labeled oligonucleotide was added at room temperature for 20 min., the samples were prepared by adding 1 μl of dye free loading buffer, and separated using 6% non-denaturing acrylamide gel electrophoresis. The gel was dried and exposed to a phosphoimaging screen for 18 hours and then visualized with a phosphoimager. For specificity, 1 μl of unlabeled consensus oligonucleotide was used to compete with the labeled probe.

## [Se] [selenium]
[1]; 24 h after TNBS, supplemented vs unsupplemented (FIG. 6)
  mitochondrial DNA in colon tissue, colitis-induced rats: intact mitochondrial DNA; also recorded: protects against the loss
[1]; TNBS−, Se suppl+ (FIG. 6)
  mitochondrial DNA in colon tissue, uninduced rats: No change
Cytochrome c; 24 h after TNBS, supplemented (FIG. 7B lane 4 vs lane 3)
  inflammation-associated alterations of cytochrome c protein: completely prevented
Cytochrome c; FIG. 7B lane 1 vs lane 2
  characteristics of cytochrome c protein, healthy uninduced rats: no effect
NF-κB; 0.5-5 μM, 72 hours (FIG. 12A)
  NF-κB translocation, resting unactivated macrophages: no effect
NF-κB; 72 hours, then 6 hours LPS + INFγ, range 0.5-5 μM (FIG. 12A)
  lowest concentration with dramatic effect on NF-κB translocation, activated macrophages: 0.5 µM
NF-κB; concentration-dependent (FIG. 12A)
  nuclear import of NF-κB, activated macrophages: dramatically reduced
